The target of the assay is T1, human recombinant SIRT1 enzyme (Homo sapiens, UniProt Q96EB6).
T1 construct: purchased ENZO Life Sciences Inc., NY, USA BML-AK555
T1 sequence (Q96EB6 1-747): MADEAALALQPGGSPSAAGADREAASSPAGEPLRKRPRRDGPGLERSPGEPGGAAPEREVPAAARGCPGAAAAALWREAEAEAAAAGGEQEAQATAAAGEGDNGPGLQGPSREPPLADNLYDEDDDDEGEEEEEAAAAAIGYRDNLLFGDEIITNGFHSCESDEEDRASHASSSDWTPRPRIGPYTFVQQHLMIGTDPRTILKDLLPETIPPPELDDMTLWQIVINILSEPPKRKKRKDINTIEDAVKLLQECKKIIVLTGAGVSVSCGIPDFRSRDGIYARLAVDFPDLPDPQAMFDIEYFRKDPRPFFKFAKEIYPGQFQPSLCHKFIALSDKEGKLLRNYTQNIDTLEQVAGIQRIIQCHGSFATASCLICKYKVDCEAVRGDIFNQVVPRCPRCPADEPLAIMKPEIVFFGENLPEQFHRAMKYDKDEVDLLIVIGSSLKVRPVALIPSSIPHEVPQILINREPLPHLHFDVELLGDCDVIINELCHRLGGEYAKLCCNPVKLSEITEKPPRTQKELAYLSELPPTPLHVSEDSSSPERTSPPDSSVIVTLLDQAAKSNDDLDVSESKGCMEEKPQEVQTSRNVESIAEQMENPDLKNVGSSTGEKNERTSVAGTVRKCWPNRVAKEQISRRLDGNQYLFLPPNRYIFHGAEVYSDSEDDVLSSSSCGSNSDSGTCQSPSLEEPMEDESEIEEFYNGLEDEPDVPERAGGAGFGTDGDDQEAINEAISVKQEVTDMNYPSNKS
Put plainly: SIRT1 activity measurement (SIRT1 Fluorometric Drug Discovery Kit). Type of assay: biochemical. The protocol: To analyze SIRT1 activity in a test tube, a deacetylation degree of acetylated lysine included in a substrate was measured using an SIRT1 Fluorometric Drug Discovery Kit (BML-AK555, ENZO Life Sciences Inc., NY, USA). 0.067 U/μl of a human recombinant SIRT1 enzyme and a test substance were mixed in a 96-well plate and reacted at 37° C. for 10 minutes. Subsequently, 167 μM substrate [379th to 382nd amino acid peptide of human p53, Arg-His-Lys-Lys(Ac)] and 1667 μM NAD^+ were added thereto, followed by reacting at 37° C. for 30 minutes. To stop the reaction of SIRT1, 50 μL of a developer including 2 mM nicotinamide was added, followed by reacting at 37° C. for 30 minutes. Chromophoric fluorescence intensity was measured at 360 nm excitation and 460 nm emission.

As for `CSc1ccc(/C=C/C=C/C(=O)N2CCCCC2)cc1` [LJ-2501, (2E,4E)-5-(4-(methylthio)phenyl)-1-(piperine-1-yl)penta-2,4-diene-1-one], under “in presence of 600 μM compound”, the “Vmax value of SIRT1” value is recorded as “without change”. Also, the “concentration at which SIRT1 activity was highest” value (increasing concentration of compound, human recombinant SIRT1) amounted to 600 µM.

The values are drawn from patent US10100011B2, “Pentadienoyl piperidine derivative and use thereof” (Industry-Academic Cooperation Foundation, Yonsei University, priority 2014, dated 2018).
